Test systems include DMS 273 small cell lung; HCC-2998 colon; HCT-15 colon; KM12 colon; KM20L2 colon; M19-MEL melanoma; SW-620 colon; CCRF-CEM leukemia; K-562 leukemia; BT-549 breast; MCF7 breast.
Test in all cases: growth of human tumour cells (NCI), 48 h

SMILES strings stand for the structures. Several values for one entry are separate records, joined by “and”; a condition that tells them apart may be missing. Equal entries are not always repeated.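 How tested: cells in 96-well plates exposed to compound for 48 hours at five concentrations. GI50 = concentration required for 50% inhibition of growth. TGI: concentration producing complete growth inhibition.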 Bounds are passed on as bounds.

`Cc1cc(Cl)cc2c1NC(=O)C2(O)CC(=O)c1ccc(F)cc1` (centres undefined): the TGI was greater than 100 µM in the assay with DMS 273 small cell lung; greater than 100 µM in the assay with HCC-2998 colon; greater than 100 µM in the assay on HCT-15 colon; greater than 100 µM with KM12 colon; greater than 100 µM in the assay on KM20L2 colon; 17.9 µM in the assay on M19-MEL melanoma. For the same molecule, in the assay on SW-620 colon, the TGI is greater than 100 µM.
On to `CC1NCCc2c1[nH]c1cc(O)ccc21` (centres undefined), for which the TGI in the assay on CCRF-CEM leukemia, with HCC-2998 colon, in the assay on HCT-15 colon, in the assay on K-562 leukemia, with KM12 colon and in the assay with KM20L2 colon was greater than 100 µM throughout. Besides, the TGI with M19-MEL melanoma and in the assay on SW-620 colon was greater than 100 µM in each case.
For `CC1(C)Cc2nnsc2C2=C1C(=O)CCS2`, the TGI with CCRF-CEM leukemia, in the assay on DMS 273 small cell lung, with HCC-2998 colon, in the assay with HCT-15 colon, in the assay on K-562 leukemia and in the assay with KM12 colon was greater than 100 µM in each case. In addition, the TGI in the assay on KM20L2 colon and with SW-620 colon was greater than 100 µM throughout.
In the case of `NCCn1cnc2nc(NC(=O)c3ccccc3)[nH]c(=O)c21`, the TGI in the assay on HCC-2998 colon, in the assay on HCT-15 colon, with K-562 leukemia, with KM12 colon, in the assay on KM20L2 colon and with M19-MEL melanoma was greater than 100 µM throughout. The molecule also yielded a TGI in the assay with SW-620 colon greater than 100 µM.
Regarding `CCOC(=O)C1=C(C)N(NC(=O)OC)C2(N)N(NC(=O)OC)C(C)=C(C(=O)OCC)C12C#N` (centres undefined), the TGI in the assay on DMS 273 small cell lung, in the assay on HCC-2998 colon, in the assay with HCT-15 colon, in the assay on K-562 leukemia, in the assay with KM12 colon and in the assay on KM20L2 colon was greater than 100 µM throughout. The TGI in the assay with M19-MEL melanoma and in the assay on SW-620 colon was greater than 100 µM throughout.
With `COc1cccc2c1C(=O)c1c(O)c3c(c(O)c1C2=O)C[C@@](O)(C(C)=O)C[C@@H]3OC1CC(O)C(O)C(C)O1` (some centres undefined), the TGI with BT-549 breast is 20.1 µM; in the assay with CCRF-CEM leukemia it was 1.98 µM and 2.06 µM; in the assay on DMS 273 small cell lung it was 7.84 µM and 3.46 µM; in the assay on HCC-2998 colon, 12.8 µM; in the assay on HCT-15 colon, 9.84 µM and 14.6 µM; in the assay with K-562 leukemia, 14.5 µM. The TGI with KM12 colon was 9.61 µM and 12.2 µM; in the assay with M19-MEL melanoma, 9.24 µM and 6.19 µM; in the assay on MCF7 breast it was greater than 94.4 µM; with SW-620 colon, 35.5 µM. Also, the GI50 with MCF7 breast is 0.153 µM.
In the case of `CC(C)(C)c1cc(-c2c3nc(c(-c4cc(C(C)(C)C)cc(C(C)(C)C)c4)c4ccc([nH]4)c(-c4cc(C(C)(C)C)cc(C(C)(C)C)c4)c4nc(c(-c5cc(C(C)(C)C)cc(C(C)(C)C)c5)c5ccc2[nH]5)C=C4)C=C3)cc(C(C)(C)C)c1`, the TGI in the assay on CCRF-CEM leukemia, with DMS 273 small cell lung, in the assay with HCC-2998 colon, with HCT-15 colon, with K-562 leukemia and in the assay with KM12 colon was greater than 100 µM each time. The TGI in the assay on KM20L2 colon and with SW-620 colon was greater than 100 µM throughout.
In the case of `NC1=NCC(c2ccccn2)C1c1ccc(F)cc1` (centres undefined), the TGI in the assay with CCRF-CEM leukemia, with HCC-2998 colon, in the assay with K-562 leukemia, in the assay with KM12 colon, with KM20L2 colon and with M19-MEL melanoma was greater than 100 µM each time. The TGI in the assay with SW-620 colon is greater than 100 µM.
In the case of `Clc1ccc(-c2nc(C(Cl)Cl)nc3cc(-c4ccccc4)nn23)cc1`, the GI50 was greater than 50 µM in the assay with BT-549 breast; greater than 50 µM in the assay with CCRF-CEM leukemia; 0.741 µM in the assay with HCC-2998 colon; 1.3 µM in the assay with HCT-15 colon; 1.81 µM in the assay with K-562 leukemia; 0.884 µM in the assay with KM12 colon. Also, the GI50 is 1.47 µM in the assay with MCF7 breast and 1.01 µM in the assay on SW-620 colon. In addition, the TGI in the assay on BT-549 breast is greater than 50 µM; in the assay on CCRF-CEM leukemia, greater than 50 µM; in the assay with HCC-2998 colon it was 1.42 µM; in the assay on HCT-15 colon it was greater than 50 µM; in the assay with K-562 leukemia, greater than 50 µM; in the assay on KM12 colon, 2.89 µM. Also, the TGI in the assay on MCF7 breast and in the assay with SW-620 colon was greater than 50 µM throughout.
On to `c1ccc2c(-c3cnn4cc(-c5ccc(N6CCNCC6)cc5)cnc34)ccnc2c1`, for which the GI50 is 1.6 µM in the assay with BT-549 breast; 0.196 µM in the assay with CCRF-CEM leukemia; 1.36 µM with HCC-2998 colon; 0.325 µM in the assay on HCT-15 colon; 0.226 µM in the assay on K-562 leukemia; 1.15 µM in the assay with KM12 colon. The GI50 in the assay on MCF7 breast is 0.429 µM; in the assay with SW-620 colon it was 0.335 µM. The TGI amounted to 3.13 µM with BT-549 breast; 0.447 µM with CCRF-CEM leukemia; 2.74 µM in the assay with HCC-2998 colon; 1.45 µM in the assay with HCT-15 colon; 0.696 µM with K-562 leukemia; 2.39 µM in the assay with KM12 colon. Also, the TGI in the assay with MCF7 breast came out at 1.7 µM; in the assay with SW-620 colon, 1.37 µM.
As for `C/C=C/C=C/CCCCCCCCCCCCC[C@]1(OC)C=CC(CC(=O)OC)OO1` (some centres undefined), the GI50 was 6.9 µM in the assay with CCRF-CEM leukemia; 24.3 µM in the assay with HCC-2998 colon; 16 µM in the assay on HCT-15 colon; 17.9 µM in the assay on KM12 colon; 23.9 µM with KM20L2 colon; 16.7 µM with SW-620 colon. Moreover, the TGI in the assay on CCRF-CEM leukemia is 28.7 µM; with HCC-2998 colon, 47.9 µM; in the assay with HCT-15 colon, 29.5 µM; with K-562 leukemia it was 52.1 µM; in the assay with KM12 colon, 36.3 µM; in the assay with KM20L2 colon it was 51.1 µM. The TGI in the assay with M19-MEL melanoma and in the assay on SW-620 colon was 33 µM each time.
Regarding `COc1ccc(/C(=C\c2cc(OC)c(OC)c(OC)c2)C(=O)O)cc1`, the TGI with CCRF-CEM leukemia was greater than 100 µM; with DMS 273 small cell lung it was greater than 100 µM; in the assay with HCT-15 colon, greater than 100 µM; with K-562 leukemia, greater than 100 µM; with KM12 colon, 85.6 µM; in the assay with KM20L2 colon, 45 µM. Further, the TGI in the assay with M19-MEL melanoma and in the assay with SW-620 colon was greater than 100 µM each time.
For `O=C1Nc2ccc(CN3CCOC3=O)cc2/C1=C/c1cc(CN2CCOCC2)c[nH]1`, the GI50 with BT-549 breast was 23.5 µM; in the assay with CCRF-CEM leukemia, 35.4 µM; in the assay on HCC-2998 colon, 61 µM; with HCT-15 colon it was 29.4 µM; in the assay with K-562 leukemia, 27.3 µM; in the assay on KM12 colon, 4.08 µM. In addition, the GI50 was 24.1 µM in the assay with MCF7 breast and 37.9 µM in the assay with SW-620 colon. Also, the TGI was greater than 79.5 µM in the assay on BT-549 breast; greater than 100 µM in the assay on CCRF-CEM leukemia; greater than 100 µM in the assay with HCC-2998 colon; greater than 100 µM with HCT-15 colon; greater than 100 µM in the assay on K-562 leukemia; greater than 100 µM in the assay with KM12 colon. In addition, the TGI in the assay on MCF7 breast was greater than 91.9 µM; in the assay on SW-620 colon, greater than 100 µM.

The values are drawn from PubChem BioAssay (NCI).
